In article PMC2010087, “Cytotoxic and clastogenic effects of soluble chromium compounds on mammalian cell cultures” (British Journal of Cancer, 1979):
Read-outs that look alike come from different tables or passages of the source.

Assays:
CHO cell cultures [1] = system: CHO cell cultures
Method: (§1) MATERIALS AND METHODS Cells.-Cultures of the established pseudo- diploid BHK21 Syrian hamster fibroblast line, and of the established pseudodiploid CHO Chinese hamster ovary fibroblast line were grown at 37?C as monolayers, in Eagle's minimal essential medium supplemented with 10% calf serum. Cultures in glass Petri dishes were maintained in a humidified 5% C02 atmosphere. […] Cell growth was estimated on the basis of the nucleic-acid content (RNA+ DNA) of each culture, deter- mined 5 days after seeding, when controls became confluent. To this purpose nucleotides and nucleic acids were sequentially extracted by differential hydrolyses with perchloric acid (PCA): soluble nucleotides of the intracellular pool were extracted with 5% PCA at 4?C for 30 min, RNA was hydrolysed with 10%/ PCA at 37?C for 1 h, and DNA was hydrolysed with 10% PCA at 70?C for 2 h. Soluble nucleotides and RNA were measured by UV absorption at 260 nm, DNA was measured at 268 nm, with a Hitachi 200-20 double-beam spectrophotometer. In order to label nucleic acids, the cultures were incu- bated with tritiated nucleosides (Radio- chemical Centre, Amersham, England): thy- midine-6-H3 ([3H]-TdR; 2 Ci/mM) and uridine-5-H3 ([3H]-UR; 2-5 Ci/mM) were used at the concentration of 2 µCi/ml. After labelling, nucleotides and nucleic acids were extracted and determined as above, and the radioactivity of liquid samples (0-5 ml) of the different fractions was counted in a Packard Tri-Carb 2425 scintillation counter, using 10 ml of Bray's solution. As stated else- where (Levis et al., 1978a, b) the extraction procedure with PCA allows both quantitative determinations and radioactivity counting of different fractions (soluble nucleotides, RNA and DNA) obtained from the same culture. […] The medium was not changed until the 8th day, when the plates were stained with acetic gentian violet, and scored for survivors. All colonies visible to the naked eye were counted as survivors. Chromosome preparations.-Suspensions of CHO cells were prepared by trypsinization of log-phase cultures and diluted with growth medium in 100mm Petri plates. Each plate received about 8 x 10^5 cells in 10 ml of medium, which was changed 24 h after seeding. At this time 3 x 10^-5 M bromodeoxyuridine (BUdR, Sigma, St Louis, Mo., U.S.A.) was added and the cells were allowed to incor- porate the analogue for two division cycles (30 h). […] The medium was not changed until the cells were collected 30 h later. During the last 4 h of treatment, 0 4 Hg/ml of colchicine (Merck, Darmstadt, Germany) were added. At the end of treatment, metaphase cells were dislodged by gently pipetting the overlaying medium and collected by centrifuging the suspension at 900 rev/min for 5 min. The cell pellet was suspended in 5 ml hypotonic buffer (10% sodium citrate) at 37?C for 10 min and fixed in ethanol/acetic acid (3/1). Fixed cells were heated at 89?C for 10 min in IM NaH2PO4 (pH 8) and stained with Giemsa (Korenberg & Freedlender, 1974). […] Chromium compounds and cell treatments.- Hexavalent chromium (Cr6+) was tested as K2Cr207 (potassium dichromate), K2CrO4 (potassium chromate) and Na2CrO4.4H20 (sodium chromate) (Mallinckrodt, St Louis, Mo., U.S.A.), as Na2Cr2O7.2H20 (sodium dichromate) (Riedel De Haen, Hannover, Germany), as CrO3 (chromic acid) (Merck, Darmstadt, Germany), and as CaCrO4 (cal- cium chromate) (BDH, Poole, England).

CHO cell cultures [2] = assay type: cell-based, Chinese hamster
Method: as §1

CHO cells [3] = experiment: CHO cell survival (macroscopic colonies); assay type: cell-based, Chinese hamster; settings: seeded in presence of Cr, treated up to 8th day
Method: MATERIALS AND METHODS Cells.-Cultures of the established pseudo- diploid BHK21 Syrian hamster fibroblast line, and of the established pseudodiploid CHO Chinese hamster ovary fibroblast line were grown at 37?C as monolayers, in Eagle's minimal essential medium supplemented with 10% calf serum. Cultures in glass Petri dishes were maintained in a humidified 5% C02 atmosphere. […] Cell growth was estimated on the basis of the nucleic-acid content (RNA+ DNA) of each culture, deter- mined 5 days after seeding, when controls became confluent. […] Soluble nucleotides and RNA were measured by UV absorption at 260 nm, DNA was measured at 268 nm, with a Hitachi 200-20 double-beam spectrophotometer. […] After labelling, nucleotides and nucleic acids were extracted and determined as above, and the radioactivity of liquid samples (0-5 ml) of the different fractions was counted in a Packard Tri-Carb 2425 scintillation counter, using 10 ml of Bray's solution. As stated else- where (Levis et al., 1978a, b) the extraction procedure with PCA allows both quantitative determinations and radioactivity counting of different fractions (soluble nucleotides, RNA and DNA) obtained from the same culture. […] The medium was not changed until the 8th day, when the plates were stained with acetic gentian violet, and scored for survivors. All colonies visible to the naked eye were counted as survivors. […]

BHK cells = settings: chronic exposure
Method: as §1

CHO cells [4] = settings: 30 h, 1.0 ug/ml Cr6+
Method: as §1

## [K+].[K+].[O]=[Cr](=[O])([O-])[O-] [K2CrO4, potassium chromate]
CHO cell cultures [1]
  Sister chromatid exchanges per chromosome: 0.50 + 0-01
  Sister chromatid exchanges per metaphase: 9-80 + 0-31
CHO cell cultures [2]
  Cell growth (%): 5%

## CC(=O)[O-].CC(=O)[O-].CC(=O)[O-].[Cr+3] [Cr(COOCH3)3, chromium acetate]
CHO cells [3]
  50% lethal dose (LD50): 150 µg/mL
BHK cells
  cytotoxic action on cell growth: weakly cytotoxic
CHO cell cultures [2]; 5 days in presence of compound, [Cr] 312.0 ug/ml
  Cell growth (%): 1%

## [Na+].[Na+].[O]=[Cr](=[O])([O-])[O][Cr](=[O])(=[O])[O-] [Na2Cr2O7, sodium dichromate]
CHO cells [4]
  increase of chromosome aberrations: about 10 fold
CHO cell cultures [2]
  Cell growth (%): 3%
  RNA/DNA: 6-9

## [Ca+2].[O]=[Cr](=[O])([O-])[O-] [CaCrO4, calcium chromate]
CHO cell cultures [2]
  Cell growth (%): 1%
  RNA/DNA: 4.8

## [O]=[Cr](=[O])=[O] [CrO3, chromic acid]
CHO cell cultures [2]
  Cell growth (%): 2%

## [Na+].[Na+].[O]=[Cr](=[O])([O-])[O-] [Na2CrO4, sodium chromate]
CHO cell cultures [1]
  Sister chromatid exchanges per chromosome: 059 + 0-20
  Sister chromatid exchanges per metaphase: 10-62 + 0-33
CHO cell cultures [2]
  Cell growth (%): 6%

## O=S(=O)([O-])[O-].O=S(=O)([O-])[O-].[Cr+3].[K+] [CrK(SO4)2, chromium potassium sulphate]
BHK cells
  cytotoxic action on cell growth: weakly cytotoxic
CHO cell cultures [2]; 5 days in presence of compound, [Cr] 209.0 ug/ml
  Cell growth (%): 62%
CHO cell cultures [2]; 5 days, [Cr] 209.0 ug/ml
  RNA/DNA: 1-4

## [K+].[K+].[O]=[Cr](=[O])([O-])[O][Cr](=[O])(=[O])[O-] [K2Cr2O7, potassium dichromate]
CHO cell cultures [2]
  Cell growth (%): 4%

## [Cl][Cr]([Cl])[Cl] [CrCl3, chromium chloride]
BHK cells; even at 300 tg/ml Cr3+ (maximum solubility in complete growth medium)
  cytotoxic action on cell growth: little or no cytotoxic action
CHO cell cultures [2]; 5 days in presence of compound, [Cr] 262.0 ug/ml
  Cell growth (%): 61%
